# Results: patent US20160346249A1 (priority 2012, published 2016)
# How the values were obtained:
# [1] = NADPH dependent metabolism, human liver microsomes; assay type: in vitro ADME
# Description: Bicifadine (10 μM) was used as the positive control and the formation of the lactam metabolites of bicifadine (M-12) was monitored.
# [2] = Anesthetized dog intravenous cardiovascular study; assay type: in vivo
# Description: Whole blood samples were collected via a cannulated femoral vein at 0, 10, 20, and 29 minutes (timed from the start of each dose administration).
# A separate group of 4 dogs was infused with vehicle only (30-60 mL over 90 minutes) for comparison. […] Whole blood samples were collected for determination of peak plasma concentrations (see Section 5.3.3) following infusion of each dose.
# [3] = 13-week rat toxicity and toxicokinetic study; assay type: in vivo; settings: for AUC(0-t): read-out: AUC0-24
# Description: In two separate experiments, toxicology and toxicokinetic studies were performed. […] Blood samples were collected on Day 0 and Day 87 of the study from up to 3 animals/gender/group.
# For toxicology assessment, clinical observations, body weight and food consumptions measures were noted periodically during the study. At termination, clinical pathology evaluations (hematology and serum chemistry) were performed, necropsies conducted, selected organs were weighed, and selected tissues examined microscopically.
# [4] = Dog oral cardiovascular (radiotelemetry) study; assay type: in vivo
# Description: There were four male and four female dogs per group. Surgical implantation of radiotelemetry devices occurred under anesthesia approximately 1 week prior to study initiation. The test article was administered according to a Latin square design such that each radiotelemetry-implanted dog received each treatment once, with a 7-day washout period between doses. Clinical examinations and detailed physical examinations were performed, and individual body weights were recorded on dosing days.
# [5] = biological target: T1, serotonin transporters (SERT) in the human brain (Homo sapiens, UniProt P31645); assay: Open label PET study with [11C]DASB (DOV 947-007); assay type: in vivo; settings: for brain SERT occupancy: 150 mg single oral dose; for Mean (Range) SERT Occupancy, Mean / Mean (Range) SERT Occupancy, Striatum / Mean (Range) SERT Occupancy, Thalamus: EB-1010 150 mg single oral, N = 3, preliminary
# T1 construct: from tissue; host or cells: brain of healthy male volunteers, in vivo PET with [11C]DASB
# T1 sequence (P31645 whole entry): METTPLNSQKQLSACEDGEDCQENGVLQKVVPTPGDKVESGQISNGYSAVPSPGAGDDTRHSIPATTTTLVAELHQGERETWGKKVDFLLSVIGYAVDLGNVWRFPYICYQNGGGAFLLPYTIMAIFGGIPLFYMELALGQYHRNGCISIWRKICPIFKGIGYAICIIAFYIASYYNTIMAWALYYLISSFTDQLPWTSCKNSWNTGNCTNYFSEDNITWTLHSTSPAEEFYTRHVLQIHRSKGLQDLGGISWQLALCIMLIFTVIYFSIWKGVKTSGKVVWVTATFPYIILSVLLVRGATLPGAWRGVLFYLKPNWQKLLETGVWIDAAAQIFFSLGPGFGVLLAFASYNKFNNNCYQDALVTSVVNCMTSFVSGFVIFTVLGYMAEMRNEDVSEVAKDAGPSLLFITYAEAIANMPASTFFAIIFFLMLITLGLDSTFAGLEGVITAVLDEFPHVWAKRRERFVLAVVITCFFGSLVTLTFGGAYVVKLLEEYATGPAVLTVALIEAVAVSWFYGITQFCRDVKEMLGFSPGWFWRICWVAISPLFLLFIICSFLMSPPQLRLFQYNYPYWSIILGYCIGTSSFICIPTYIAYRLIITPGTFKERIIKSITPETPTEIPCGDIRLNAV
# Excerpt: With PET imaging, uptake inhibitor effects may be measured based on the proportion of SERT sites blocked in the brain. […] Safety was monitored by clinical and laboratory evaluations, including vital signs, physical examination, clinical chemistry, hematology, urinalysis, and ECG.
# [6] = Multiple-dose safety and PK study 25 mg BID and 50 mg BID for 10 days; assay type: in vivo, human; settings: for drug accumulation: 10 days; for Cmax / Tmax / half-life / AUC(0-t): male, human, in vivo, healthy male subjects, mean (SD); for AUC(0-t): read-out: AUC0-12
# Excerpt: Twenty-two male subjects were randomized for the study and received study medication.
# [7] = female, Crl:CD (SD)IGS BR, rat, in vivo, po, 10 mg/kg/day, females, 10 mg/kg/day, Day 0
# [8] = female, Crl:CD(SD)IGS BR, rat, in vivo, po, 10 mg/kg/day, females, 10 mg/kg/day, Day 87
# [9] = female, Crl:CD(SD)IGS BR, rat, in vivo, po, 25 mg/kg/day, females, 25 mg/kg/day, Day 0
# [10] = female, Crl:CD(SD)IGS BR, rat, in vivo, po, 25 mg/kg/day, females, 25 mg/kg/day, Day 87
# [11] = female, Crl:CD(SD)IGS BR, rat, in vivo, po, 60 mg/kg/day, females, 60 mg/kg/day, Day 0
# [12] = female, Crl:CD(SD)IGS BR, rat, in vivo, po, 60 mg/kg/day, females, 60 mg/kg/day, Day 87
# [13] = male, Crl:CD(SD)IGS BR, rat, in vivo, po, 10 mg/kg/day, males, 10 mg/kg/day, Day 0
# [14] = male, Crl:CD(SD)IGS BR, rat, in vivo, po, 10 mg/kg/day, males, 10 mg/kg/day, Day 87
# [15] = male, Crl:CD(SD)IGS BR, rat, in vivo, po, 25 mg/kg/day, males, 25 mg/kg/day, Day 0
# [16] = male, Crl:CD(SD)IGS BR, rat, in vivo, po, 25 mg/kg/day, males, 25 mg/kg/day, Day 87
# [17] = male, Crl:CD(SD)IGS BR, rat, in vivo, po, 60 mg/kg/day, males, 60 mg/kg/day, Day 0
# [18] = male, Crl:CD(SD)IGS BR, rat, in vivo, po, 60 mg/kg/day, males, 60 mg/kg/day, Day 87
smiles,measurement,setting,value
"O=C1NCC2(c3ccc(Cl)c(Cl)c3)CC12 (stereo not shown) [EB-10101, 5-(3,4-dichloro-phenyl)-3-aza-bicyclo[3.1.0]hexan-2-one]",amount formed with NADPH vs without NADPH,"[1]; HLM, from EB-1010 10 μM",~2 fold
same,share of lactam formed by enzymes other than CYPs or FMOs,[1]; human liver microsomes,about 50%
"Clc1ccc([C@]23CNC[C@H]2C3)cc1Cl [amitifadine, (+)-1-(3,4-dichlorophenyl)-3-azabicyclo[3.1.0]hexane]",hemolysis in derived plasma fractions,[2]; IV infusion 2-29 mg/kg cumulative,Dose-related hemolysis was apparent
same,change in BF,[2]; top dose,−57%
same,change in HR,[2]; top dose,+10%
same,change in PR interval vs baseline,[2]; top dose,−9%
same,change in QRS interval vs baseline,[2]; top dose,+2%
same,change in QTC interval vs baseline,[2]; top dose,+2%
same,change in femoral vascular resistance,[2]; top dose,+354%
same,test article-related deaths (number of females),"[3]; 60 mg/kg/day, first week",Three
same,female vs male AUC0-24 and Cmax difference,[3]; all dose groups,up to 85%
same,NOAEL at 13 weeks,"[3]; both sexes, Crl:CD(SD)IGS BR, rat, in vivo, oral gavage, 13 weeks",10 mg/kg/day
same,Tmax,[3]; [7],1 h
same,AUC(0-t),[3]; [7],10900 ng·h/mL
same,AUC(0-t),"[3]; female, Crl:CD(SD)IGS BR, rat, in vivo, oral, 10 mg/kg/day, females, 10 mg/kg/day, Day 87",14400 ng·h/mL
same,Cmax,[3]; [8],1850 ng/mL
same,Tmax,[3]; [8],1 h
same,Cmax,[3]; [9],2810 ng/mL
same,Tmax,[3]; [9],2 h
same,AUC(0-t),[3]; [9],31000 ng·h/mL
same,Cmax,[3]; [10],3700 ng/mL
same,Tmax,[3]; [10],2 h
same,AUC(0-t),[3]; [10],30200 ng·h/mL
same,Cmax,[3]; [11],6600 ng/mL
same,Tmax,[3]; [11],2 h
same,AUC(0-t),[3]; [11],54400 ng·h/mL
same,Cmax,[3]; [12],6530 ng/mL
same,Tmax,[3]; [12],2 h
same,AUC(0-t),[3]; [12],88100 ng·h/mL
same,decrease in mean cumulative body weight gain vs control,"[3]; females, 25 mg/kg/day",13%
same,decrease in mean cumulative body weight gain vs control,"[3]; females, 60 mg/kg/day",13%
same,AUC(0-t),"[3]; male, Crl:CD(SD)IGS BR, rat, in vivo, oral, 10 mg/kg/day, males, 10 mg/kg/day, Day 87",8130 ng·h/mL
same,Cmax,[3]; [13],863 ng/mL
same,Tmax,[3]; [13],2 h
same,AUC(0-t),[3]; [13],5940 ng·h/mL
same,Cmax,[3]; [14],1120 ng/mL
same,Tmax,[3]; [14],1 h
same,Cmax,[3]; [15],2360 ng/mL
same,Tmax,[3]; [15],2 h
same,AUC(0-t),[3]; [15],17400 ng·h/mL
same,Cmax,[3]; [16],2490 ng/mL
same,Tmax,[3]; [16],2 h
same,AUC(0-t),[3]; [16],22000 ng·h/mL
same,Cmax,[3]; [17],3680 ng/mL
same,Tmax,[3]; [17],1 h
same,AUC(0-t),[3]; [17],36300 ng·h/mL
same,Cmax,[3]; [18],5010 ng/mL
same,Tmax,[3]; [18],1 h
same,AUC(0-t),[3]; [18],60100 ng·h/mL
same,decrease in mean cumulative body weight gain vs control,"[3]; males, 25 mg/kg/day",16%
same,decrease in mean cumulative body weight gain vs control,"[3]; males, 60 mg/kg/day",30%
same,change in QTcV interval,[4]; 10 mg/kg oral,< 2%
same,NOEL,[4]; single oral capsule,10 mg/kg
same,brain SERT occupancy,[5]; about 2 hours,approximately 48%
same,brain SERT occupancy,[5]; about 7 hours,~32%
same,brain SERT occupancy,"[5]; about 7 hours, listed as EB-1010",approximately 32%
same,"Mean (Range) SERT Occupancy, Mean",[5]; ~2 h,48 (43-54) %
same,"Mean (Range) SERT Occupancy, Striatum",[5]; ~2 h,48 (44-53) %
same,"Mean (Range) SERT Occupancy, Thalamus",[5]; ~2 h,48 (41-55) %
same,"Mean (Range) SERT Occupancy, Mean",[5]; ~7 h,32 (23-41) %
same,"Mean (Range) SERT Occupancy, Striatum",[5]; ~7 h,32 (23-37) %
same,"Mean (Range) SERT Occupancy, Thalamus",[5]; ~7 h,33 (22-44) %
same,drug accumulation,[6]; 25 mg BID,1.27
same,drug accumulation,[6]; 50 mg BID,1.44
same,Cmax,"[6]; 25 mg, 25 mg BID, Day 1",327 ng/mL
same,Tmax,"[6]; 25 mg, 25 mg BID, Day 1",0.9 h
same,half-life,"[6]; 25 mg, 25 mg BID, Day 1",3.27 h
same,AUC(0-t),"[6]; 25 mg, 25 mg BID, Day 1",1360 ng·h/mL
same,Cmax,"[6]; 25 mg, 25 mg BID, Day 10",388 ng/mL
same,Tmax,"[6]; 25 mg, 25 mg BID, Day 10",1.07 h
same,half-life,"[6]; 25 mg, 25 mg BID, Day 10",3.34 h
same,AUC(0-t),"[6]; 25 mg, 25 mg BID, Day 10",1700 ng·h/mL
same,Cmax,"[6]; 50 mg, 50 mg BID, Day 1",496 ng/mL
same,half-life,"[6]; 50 mg, 50 mg BID, Day 1",3.19 h
same,AUC(0-t),"[6]; 50 mg, 50 mg BID, Day 1",2240 ng·h/mL
same,Cmax,"[6]; 50 mg, 50 mg BID, Day 10",744 ng/mL
same,Tmax,"[6]; 50 mg, 50 mg BID, Day 10",1.18 h
same,half-life,"[6]; 50 mg, 50 mg BID, Day 10",2.97 h
same,AUC(0-t),"[6]; 50 mg, 50 mg BID, Day 10",3200 ng·h/mL
